From patent publication US20240245057A1, “INSECTICIDAL COMPOSITION FOR AGRICULTURAL OR HORTICULTURAL USE AND METHOD OF CONTROLLING AGRICULTURAL OR HORTICULTURAL PEST” (SDS BIOTECH K.K, priority 2021, published 2024)
Structures can show the parent of a compound that is named as a salt. Where two headings read alike, the source gives them in different places.

What was measured:
Format in all cases: in vivo
[1] = tested on: 3rd instar larvae of Helicoverpa armigera; conditions: for insecticidal efficacy against the 3rd instar larvae of Helicoverpa armigera (in words): hydrochloride alone; for Number of dead insects/Number of test insects: 4 days
Source text: Each insecticidal protein solution obtained was admixed with prumycin hydrochloride prepared in Production Example 1 or kanosamine hydrochloride (Sigma-Aldrich Japan, LLC.) at a prescribed concentration to prepare a solution containing the insecticidal protein and prumycin hydrochloride or kanosamine hydrochloride. The obtained solution was admixed with artificial feed (Insecta LFS (manufactured by Nosan Corporation)) as shown in Tables 10 to 13 so that the content of each insecticidal protein was 0.063 to 8 μg/g of the artificial feed and the content of prumycin hydrochloride or kanosamine hydrochloride was 10 μg/g of the artificial feed. In this way, each artificial feed containing the insecticidal protein and prumycin hydrochloride or kanosamine hydrochloride was prepared. In addition, the above-described insecticidal protein solution, prumycin hydrochloride, or kanosamine hydrochloride alone was admixed with the artificial feed as shown in Tables 10 to 13 so that the content of each insecticidal protein was 0.063 to 8 μg/g of the artificial feed or the content of prumycin hydrochloride or kanosamine hydrochloride was […] of the artificial feed, respectively. In this way, each artificial feed containing the insecticidal protein, prumycin hydrochloride, or kanosamine hydrochloride alone was prepared. Each artificial feed containing or free of each substance thus obtained was placed on a petri dish (35 mm in diameter and 10 mm in height), and one 3rd instar larva of Helicoverpa armigera reared in a rearing room at 25° C. was released into each petri dish (10 replicates). Each petri dish was closed and kept at 25° ° C. for 4 days.
The number of dead insects was then macroscopically examined by observing the inside of each petri dish, and the LC50 value was calculated by the probit method. Next, based on the following equation, the ratio of the test plot without prumycin hydrochloride or kanosamine hydrochloride to the test plot with prumycin hydrochloride or kanosamine hydrochloride was calculated to determine the increase in insecticidal activity when prumycin hydrochloride or kanosamine hydrochloride was added.

[2] = tested on: 3rd instar larvae of Spodoptera litura; test: Test of efficacy against 3rd instar larvae of Spodoptera litura (dried Bt cultures mixed into artificial feed); conditions: for Measured insecticidal rate (%): agent alone, 2 μg/g Feed, 25° C., 5 days; for insecticidal efficacy against the 3rd instar larvae of Spodoptera litura (in words): alone, application concentration of 2 μg/g feed
Procedure: A suspension of dried Btk culture or dried Bta culture was prepared by adding distilled water to the dried Btk culture or dried Bta culture prepared in Preparation Example 1. This suspension was admixed with prumycin hydrochloride prepared in Production Example 1 or kanosamine hydrochloride (Sigma-Aldrich Japan, LLC) at the prescribed concentration to prepare a solution. The obtained solution was admixed with artificial feed (Insecta LFS (manufactured by Nosan Corporation)) as shown in Tables 1 to 6 so that the content of the dried Btk culture or Bta culture was 0.2 to 2 mg/g of the artificial feed and the content of prumycin hydrochloride or kanosamine hydrochloride was 2 μg/g of the artificial feed. The artificial feed containing the dried Btk culture or dried Bta culture mixed with prumycin hydrochloride or kanosamine hydrochloride was placed on a petri dish (90 mm in diameter and 15 mm in height), and ten 3rd instar larvae of Spodoptera litura reared in a rearing room at 25° C. were released into the petri dish (triplicate). Each petri dish was closed and kept at 25° C. for 5 days.
The number of dead insects was then macroscopically counted by observing the inside of the petri dish, and the (measured) insecticidal rate (%) of the number of dead insects to the total number of reared insects was determined.
In addition, the suspension of dried Btk culture alone, the suspension of dried Bta alone, prumycin hydrochloride alone, kanosamine hydrochloride alone, or a combination of prumycin hydrochloride and kanosamine hydrochloride was added to the artificial feed to achieve the application concentration per g of the artificial feed as shown in Tables 1 to 6. Except the above, ten 3rd instar larvae of Spodoptera litura were released into a petri dish (triplicate) and kept at 25° ° C. for 5 days, as in the above Example.
The inside of the petri dish was then observed and the (measured) insecticidal rate (%) was determined in the same way as in the above Example.
The expected theoretical insecticidal rate (%) when treated with the dried Btk culture or dried Bta culture mixed with prumycin hydrochloride or kanosamine hydrochloride was determined by Colby's calculation formula ([…]). […]
The presence or absence of synergistic effect was determined by comparing the theoretical and measured insecticidal rates (%) in the case of using the dried Btk culture or dried Bta culture in combination with prumycin hydrochloride or kanosamine hydrochloride.
Specifically, the case where the measured value was larger than the theoretical value was judged as “having a synergistic effect”, and the case where the measured value was equal to or smaller than the theoretical value was judged as “having no synergetic effect” with respect to the insecticidal rate (%).

[3] = tested on: 3rd instar larvae of Spodoptera litura; conditions: for insecticidal efficacy against the 3rd instar larvae of Spodoptera litura (in words): hydrochloride alone; for Number of dead insects/Number of test insects: hydrochloride alone 10 μg/g Feed, insecticidal protein Absent, 5 days
Procedure: Each artificial feed containing or free of each substance thus obtained was placed on a petri dish (90 mm in diameter and 15 mm in height), and ten 3rd instar larva of Spodoptera litura reared in a rearing room at 25° C. were released into each petri dish (3 replicates). Each petri dish was closed and kept at 25° C. for 5 days.
After that, the number of dead insects was macroscopically counted by observing the inside of the petri dish. The LC50 values were calculated by the probit method, and the increase in insecticidal activity due to the addition of prumycin or kanosamine was calculated based on the same formula as in Test Example 4 above.

[4] = hydrochloride alone 10 μg/g Feed, insecticidal protein Absent

Compound	insecticidal efficacy against the 3rd instar larvae of Helicoverpa armigera (in words) [1]	Number of dead insects/Number of test insects [1, 4]	Measured insecticidal rate (%) [2] [%]	insecticidal efficacy against the 3rd instar larvae of Spodoptera litura (in words) [2]	insecticidal efficacy against the 3rd instar larvae of Spodoptera litura (in words) [3]	Number of dead insects/Number of test insects [3]	Number of dead insects/Number of test insects ([1]; insecticidal protein alone 0.063 μg/g Feed)	Number of dead insects/Number of test insects ([1]; insecticidal protein alone 0.125 μg/g Feed)	Number of dead insects/Number of test insects ([1]; insecticidal protein alone 0.25 μg/g Feed)	Number of dead insects/Number of test insects ([1]; insecticidal protein alone 0.5 μg/g Feed)	Number of dead insects/Number of test insects ([1]; insecticidal protein alone 1 μg/g Feed)	Number of dead insects/Number of test insects ([1]; insecticidal protein alone 2 μg/g Feed)
N[C@H]1[C@H](O)[C@@H](CO)OC(O)[C@@H]1O (stereo partly drawn) [Kanosamine hydrochloride, 3-amino-3-deoxy-D-glucopyranose]	no insecticidal efficacy	0/10	0.0	no insecticidal efficacy	no insecticidal efficacy	0/10	–	–	–	–	–	–
CC(N)C(=O)NC1COC(O)C(N)C1O [Prumycin hydrochloride, 4-N-D-alanyl-2,4-diamino-2,4-dideoxyarabinose]	no insecticidal efficacy	0/10	0.0	no insecticidal efficacy	no insecticidal efficacy	0/10	–	–	–	–	–	–
Cry1A(c): Bacillus thuringiensis insecticidal protein expressed and purified in E. coli	–	–	–	–	–	–	0/10	0/10	0/10	1/10	6/10	7/10
